Data published in article PMC10905675, “INX-315, a Selective CDK2 Inhibitor, Induces Cell Cycle Arrest and Senescence in Solid Tumors” (Cancer Discovery, 2023).

Assays:
[1] = tested on: palbociclib-resistant MCF7 cells; experiment: CellTiter Glo viability assay; format: cell-based; conditions: Homo sapiens, MCF7, Supp Fig S9B, CDK4/6 inhibitor monotherapy; read-out: IC50
Description: (§1) An exception to this is MCF7PDRCl5-1 cells which were first cultured for 5 days without palbociclib then plated as described. MCF7PDRCl5-1 cells were treated with either a dose curve of the indicated CDK4/6i or a dose curve of INX-315 + 1 µmol/L of the indicated CDK4/6i. Cell viability was determined using the CellTiter-Glo assay (Promega, G9241) following manufacturer's instructions. Plates were processed on either BioTek Synergy2 multi-mode (Agilent) or ClarioSTAR (BMG Labtech) plate readers. T47D and MCF7 cells were seeded into […] plates using BioTek 406 (Aglient) and treated with a ten-point dose concentration from 10 µmol/L to 0.3 nmol/L of INX-315 for 2× doubling times. Plates were fixed with 4% PFA and stained with Rhodamine-Phalloidin (Bio-Trend, 00027) and DAPI (5 mg/mL, Invitrogen, catalog no. D1306). Plates were imaged using CellInsight CX7 LZR and DAPI-positive cells were counted using Thermo Fisher Scientific HCS Studio Cell Analysis Software.

[2] = tested on: parental MCF7 and T47D cells; experiment: Cell cycle flow cytometry; format: cell-based; conditions: abemaciclib 500 nmol/L, 7 days
Description: One hour prior to endpoint, either 10 µmol/L BrdU or EdU was applied to the cells. Cells were stained using the Near-IR Fixable Viability Stain (Invitrogen, L34976) for 20 minutes at room temperature. Cells were fixed and permeabilized using FoxP3/Transcription Factor Staining Buffer Set (eBioscience, 00–5523–00; for BrdU-treated cells) or Click-iT fixative (for EdU-treated cells). DNA was denatured using 2N HCl + 0.5% (v/v) Triton X-100 for 30 minutes. […] Cells were then stained with BrdU antibody (clone 3D4, BioLegend, 364118, RRID:AB_2814318) for 1 hour. The EdU Click-iT reaction was performed using a Click-iT EdU Flow Cytometry Assay Kit (Invitrogen, C10418 or C10425). Prior to acquisition on the BD A3 Symphony or FACSCelesta, DNA was stained using FxCycle Violet ReadyFlow Reagent (BrdU) or FxCycle Far Red nucleic acid stain (Invitrogen, F10348) in combination with Rnase (Sigma R4642) (for EdU-treated cells). A minimum of 10,000 live cell events were recorded for each sample and data was analyzed using Flow Jo (Tree Star, RRID:SCR_008520).

[3] = tested on: MMTV-rtTA/tetO-HER2 tumors; experiment: Transgenic mammary tumor growth; format: in vivo, mice
Description: PDX models were performed by Crown Biosciences (OV5398, GA0103, and GA0114) or XenoSTART (ST4316B). Tumor fragments from stock mice were harvested and implanted subcutaneously into the flank of NOD/SCID mice (OV5398, RRID:IMSR_JAX:001303), BALB/c nude mice (GA0103 and GA0114, RRID:IMSR_RJ:BALB-C-NUDE), or athymic nude mice (Crl:NU(NCr)-Foxn1nu, RRID:IMSR_CRL:490) (ST4316B). For CDX models, female athymic nude mice (Crl:NU(NCr)-Foxn1nu, RRID:IMSR_CRL:490) were inoculated with 1 × 10^7 50% Cultrex OVCAR3 cells in the flank. Experiments performed using MMTV-rtTA/tetO-HER2 mice were performed at the Peter MacCallum Cancer Centre. Tumor formation was induced and sustained in female mice with doxycycline as previously described ([33]). Randomization and treatment in all models began when median tumor volume reached a maximum of 300 mm^3.
Mice were treated via oral gavage. INX-315 was prepared weekly in 100% PEG400; abemaciclib was prepared as previously described ([33]) and ribociclib (Selleckchem, S7440) was prepared weekly in 0.5% methyl cellulose. To generate abemaciclib-resistant MMTV-rtTA/tetO-HER2 tumors, mice were treated continuously with abemaciclib at a dose of 75 mg/kg until tumors resumed growth as described in text. […]

[4] = tested on: five cell lines with CCNE1 amplification (ovarian cancer); experiment: CellTiter Glo viability assay; format: cell-based; conditions: six days
Hs68 = experiment: CellTiter Glo viability assay; format: cell-based; conditions: benign human fibroblast cell line Hs68
Description: as §1

MKN1 = experiment: CellTiter Glo viability assay; format: cell-based; conditions: 6 days
Description: as §1

CCN1CCN(Cc2ccc(Nc3ncc(F)c(-c4cc(F)c5nc(C)n(C(C)C)c5c4)n3)nc2)CC1 [abemaciclib]
IC50 [1]: 5.71 µM | cells in S-phase [2]: < 1% | tumors with tumor regression (>25% reduction in tumor volume) ([3]; abemaciclib monotherapy, 163 of 183 tumors): 89% | regressing tumors that had resumed growth (acquired resistance) ([3]; by day 35 of abemaciclib treatment, 142 of 163): 87%

CC(=O)c1c(C)c2cnc(Nc3ccc(N4CCNCC4)cn3)nc2n(C2CCCC2)c1=O [palbociclib, reference compound]
sensitivity of CCNE1-amplified lines [4]: not sensitive | IC50 (Hs68): 26 nM | sensitivity of MKN1 (MKN1): insensitive | IC50 [1]: > 10 µM
